We go through eight molecules from the NIST ThermoML archive (doi:10.1021/je0301085).

± gives the expanded uncertainty stated by the source.

The conditions of data set [1]: Liquid; for mass density: 101.33 kPa.
Data set [2] in a line: refractive index (Na D-line) (dimensionless). To be noted: 101.33 kPa, Liquid, Standard Abbe refractometry.

One may read the mass density as the mass of a sample divided by its volume. By vapor or sublimation pressure is commonly meant the equilibrium pressure above the liquid or solid. For orientation: refractive index means the speed of light in vacuum divided by its phase velocity in the sample. Take `ClC=C(Cl)Cl` [trichloroethene]: in data set [1] (298.15 K), the mass density worked out at 1464 ± 5 kg/m3. The results for the “vapor or sublimation pressure” value in data set [1] (358.25 K) and in data set [1] (358.55 K) were 94.6 ± 0.3 kPa and 95.8 ± 0.3 kPa, respectively. Further, the refractive index in data set [2] (298.15 K) is recorded as 1.4782 ± 0.0007.
As for `Clc1ccccc1` [chlorobenzene], the mass density in data set [1] (293.15 K) is 1106 ± 5 kg/m3. Besides, the “vapor or sublimation pressure” value in data set [1] (402.55 K) was found to be 94.6 ± 0.3 kPa. The refractive index in data set [2] (293.15 K) was 1.5248 ± 0.0007.
Turning to `CC(Cl)(Cl)Cl` [1,1,1-trichloroethane], the mass density in data set [1] (298.15 K) stood at 1330 ± 5 kg/m3. Besides, the results for the “vapor or sublimation pressure” value in data set [1] (345.25 K), in data set [1] (345.35 K) and in data set [1] (345.65 K) were 94.6 ± 0.3 kPa, 94.6 ± 0.2 kPa and 95.8 ± 0.3 kPa, respectively. Besides, the refractive index in data set [2] (298.15 K) is 1.436 ± 0.0007.
For the molecule `ClCCCl` [1,2-dichloroethane], in data set [1] (298.15 K), the mass density was determined as 1247 ± 5 kg/m3. In addition, the figures for the “vapor or sublimation pressure” value in data set [1] (354.95 K), in data set [1] (355.05 K) and in data set [1] (355.25 K) were 94.6 ± 0.3 kPa, 94.6 ± 0.3 kPa and 95.8 ± 0.3 kPa, respectively. Moreover, the refractive index in data set [2] (298.15 K) is reported as 1.4421 ± 0.0007.
Consider `ClC(Cl)=C(Cl)Cl` [tetrachloroethene], for which the mass density in data set [1] (298.15 K) was 1615 ± 5 kg/m3. Besides, the “vapor or sublimation pressure” value is 94.6 ± 0.2 kPa in data set [1] (391.25 K) and 95.8 ± 0.2 kPa in data set [1] (391.65 K). Besides, in data set [2] (298.15 K), the refractive index is recorded as 1.505 ± 0.0007.
With `CCCCCCC` [heptane], the mass density in data set [1] (298.15 K) is recorded as 679.5 ± 5 kg/m3. Besides, the “vapor or sublimation pressure” value in data set [1] (369.75 K) and in data set [1] (369.78 K) was 95.8 ± 0.3 kPa each time. In data set [2] (298.15 K), the refractive index amounted to 1.3851 ± 0.0007.
With `O=[N+]([O-])c1ccccc1` [nitrobenzene], the mass density in data set [1] (298.15 K) is listed as 1198 ± 5 kg/m3. Moreover, the “vapor or sublimation pressure” value in data set [1] (481.15 K) is 94.6 ± 0.3 kPa. For the same molecule, the refractive index in data set [2] (298.15 K) is given as 1.55 ± 0.001.
In the case of `ClC(Cl)C(Cl)Cl` [1,1,2,2-tetrachloroethane], in data set [1] (298.15 K), the mass density is given as 1587 ± 5 kg/m3. Also, the “vapor or sublimation pressure” value in data set [1] (416.95 K) is 94.6 ± 0.2 kPa; in data set [1] (417.35 K), 95.8 ± 0.2 kPa. For the same molecule, the refractive index in data set [2] (298.15 K) was 1.494 ± 0.0007.
